Assays:
[1] = system: ARG1 protein expression in BMDMs; test: Western blot of ARG1 protein in macrophages; type: cell-based, mouse; conditions: CSF-1-differentiated BMDMs, IL-4 and IL-13, 48 h, different concentrations
Protocol: We also extended the test to primary murine macrophages derived from bone marrow (BMDMs), which were cultured in vitro with recombinant mouse M-CSF for 6 days. The BMDMs were then stimulated with IL-4/IL-13, leading to their transformation into M2-like pro-tumoral macrophages. This transformation was characterized by an increase in both ARG1 and CD206 expression and a decrease in both NOS2 and MHC II expression. […] Subsequently, we assessed the capacity of compound 12 to inhibit the M2-like polarization of macrophages using CSF-1-differentiated mouse BMDMs. These cells were treated with IL-4 and IL-13 for 48 h, and the expression levels of CD206, an M2-type marker, and CD86, an M1-type marker, were analyzed via flow cytometry.
Total cellular protein was extracted using a 1 × SDS lysis buffer and denatured at 100 °C for 15 min. […]
Figure 2 Compound 12 inhibits the M2-like polarized phenotype of macrophages. […] The expression levels of the markers CD206 and CD86 on induced macrophages were determined by flow cytometry, and the mean fluorescence intensity (MFI) was analyzed with FlowJo (C), or the cells were lysed and immunoblotted to detect the indicated proteins (D). […] Data are represented as means ± SD. ^### p < 0.001 vs. non-stimulated control group, * p < 0.05, ** p < 0.01, *** p < 0.001 vs. stimulated control group. p-values were determined using one-way ANOVA.

Hepa1-6 tumor = test: In vivo anti-tumor efficacy, Hepa1-6 subcutaneous tumor model; conditions: Hepa1-6 model; for tumor growth inhibitory rate: intraperitoneal injections, once daily
From the text: Encouraged by its intriguing cellular activities, we investigated the anti-tumor effect of compound 12 in vivo. The Hepa1-6 liver cancer model, an immunocompetent macrophage-rich subcutaneous murine tumor model, was thus established. […] To further investigate whether the in vivo anti-tumor effect of compound 12 is associated with its inhibition of pro-tumoral macrophages and consequent activation of anti-tumor CD8^+ T cells, we analyzed the infiltration of macrophages and CD8^+ T cells in the tumor tissue of the Hepa1-6 model.
Animal procedures were approved by the Institutional Animal Care and Use Committee of the Shanghai Institute of Materia Medica (approval no. 2024-06-DJ-95). Mice (4–6 weeks old) were housed with five or six mice per cage in a specific pathogen-free room with a 12 h light/dark schedule at 25 °C ± 1 °C and were fed an autoclaved chow diet and water ad libitum. Hepa1-6 cells (2 × 10^6 cells) were subcutaneously implanted in the right flank of C57 BL/6 mice. […] The tumor volumes and body weights were measured twice per week. Tumor volume (TV) was calculated as follows: TV = (length × width^2)/2. Significant differences between the treated versus the vehicle groups were determined using the Student’s t-test. […] Viability was determined by staining with either the LIVE/DEAD® Fixable Violet Dead Cell Stain Kit (Invitrogen, Waltham, […], USA) or the Zombie Aqua™ Fixable Viability Kit (Biolegend, San Diego, CA, USA). Data were analyzed using FlowJo10.4 software.
Figure 4 Compound 12 inhibited Hepa1-6 tumor growth in vivo and remodeled the tumor microenvironment. […] The TVs (A) and body weights (B) are presented as the mean ± SEM. * p < 0.05 vs. the vehicle group, determined by the Student’s t-test. […] The infiltration of CD45^+ cells (C), TAMs (D), CD206^+ TAMs (E), ARG1^+ TAMs (F), CD8^+ T cells (G), GRZB^+ CD8^+ T cells (H), IFN γ^+ CD8^+ T cells (I), and TNF α^+ CD8^+ T cells (J) was tested (n = 8 mice in the vehicle group and n = 7 mice in the 12-treated group). * p < 0.05, ** p < 0.01, *** p < 0.001 vs. the vehicle group, determined by the Student’s t-test.

What does the source list for `COC(=O)C1=CC[C@@]23CC[C@@H]([C@@](C)(/C=C/C=C(\C)C(=O)NNCCO)OC2=O)[C@@]3(OC(C)=O)CC1` [compound 12, Methyl(3R,4S,4aS,9aR)-4a-acetoxy-3-((1E,3E)-5-(2-(2-hydroxyethyl)hydrazineyl)-4-methyl-5-oxopenta-1,3-dien-1-yl)-3-methyl-1-oxo-3,4,4a,5,6,9-hexahydro-1H-4,9a-ethanocyclohepta[c]pyran-7-carboxylate]?
ARG1 protein expression (Western blot) [1]: potent inhibitory activity at the protein level; body weight during the treatment (Hepa1-6 tumor; 25 and 50 mg/kg): no obvious loss of body weight; tumor growth inhibitory rate (Hepa1-6 tumor; 25 mg/kg): 53.2%; tumor growth inhibitory rate (Hepa1-6 tumor; 50 mg/kg): 48.3%

From paper PMC12114375, “Discovery of Hydrazineyl Amide Derivative of Pseudolaric Acid B for Reprogramming Tumor-Associated Macrophages Against Tumor Growth” (Molecules, 2025)
